{"source": "patent US5100785A", "about": "“Polycyclic ether antibiotic” (Pfizer Inc., priority 1984, dated 1992)", "key": {"Streptococcus pyogenes": {"system": "Streptococcus pyogenes", "assay": "in vitro antibacterial activity (MIC), Streptococcus pyogenes", "format": "cell-based", "settings": "strain 020303; 24 hours"}, "[1]": {"system": "Fusobacterium necrophorum", "assay": "in vitro antibacterial activity (MIC), Fusobacterium necrophorum", "format": "cell-based", "settings": "strain 84C004; 24 hours"}, "Pseudomonas aeruginosa": {"system": "Pseudomonas aeruginosa", "assay": "in vitro antibacterial activity (MIC), Pseudomonas aeruginosa", "format": "cell-based", "settings": "gram-negative; 24 hours", "experimental": "(§1) In Table I, below, the results of in vitro tests are summarized. For this test each organism is innoculated in a series of test tubes containing nutrient medium and varying concentrations of Antibiotic UK-58,852 to determine the minimal concentration of the compound in mcg./ml. which inhibits the growth of the organism over a period of 24 hours (MIC)."}, "Clostridium perfringens": {"system": "Clostridium perfringens", "format": "cell-based", "settings": "strain 10A009; 24 hours"}, "[2]": {"system": "Actinobacillus pleuropneumoniae", "assay": "in vitro antibacterial activity (MIC), Actinobacillus pleuropneumoniae", "format": "cell-based", "settings": "strain 44B004; 24 hours"}, "Streptococcus faecalis": {"system": "Streptococcus faecalis", "assay": "in vitro antibacterial activity (MIC), Streptococcus faecalis", "format": "cell-based", "settings": "strain 02A006; 24 hours"}, "Klebsiella pneumoniae": {"system": "Klebsiella pneumoniae", "assay": "in vitro antibacterial activity (MIC), Klebsiella pneumoniae", "format": "cell-based", "settings": "gram-negative; 24 hours", "experimental": "as §1"}, "Treponema hyodysenteriae": {"system": "Treponema hyodysenteriae", "assay": "in vitro antibacterial activity (MIC), Treponema hyodysenteriae", "format": "cell-based", "settings": "strain 94A007; 24 hours"}, "Staphylococcus aureus": {"system": "Staphylococcus aureus", "assay": "in vitro antibacterial activity (MIC), Staphylococcus aureus", "format": "cell-based", "settings": "24 hours", "experimental": "as §1"}, "Pasteurella multocida": {"system": "Pasteurella multocida", "assay": "in vitro antibacterial activity (MIC), Pasteurella multocida", "format": "cell-based", "settings": "strain 59A006; 24 hours"}, "Escherischia coli": {"system": "Escherischia coli", "assay": "in vitro antibacterial activity (MIC), Escherischia coli", "format": "cell-based", "settings": "gram-negative; 24 hours", "experimental": "as §1"}, "Serratia marcescens": {"system": "Serratia marcescens", "assay": "in vitro antibacterial activity (MIC), Serratia marcescens", "format": "cell-based", "settings": "gram-negative; 24 hours", "experimental": "as §1"}, "Actinomyces pyogenes": {"system": "Actinomyces pyogenes", "assay": "in vitro antibacterial activity (MIC), Actinomyces pyogenes", "format": "cell-based", "settings": "strain 14D011; 24 hours"}, "Bacteroides fragilis": {"system": "Bacteroides fragilis", "assay": "in vitro antibacterial activity (MIC), Bacteroides fragilis", "format": "cell-based", "settings": "strain 78C024; 24 hours"}, "[3]": {"system": "Enterobacteriaceae aerogenes", "assay": "in vitro antibacterial activity (MIC), Enterobacteriaceae aerogenes", "format": "cell-based", "settings": "gram-negative; 24 hours", "experimental": "as §1"}, "Eimeria acervulina": {"system": "Eimeria acervulina", "assay": "in vivo anticoccidial activity in chickens, Eimeria acervulina", "settings": "for AVERAGE DEGREE OF INFECTION / WEIGHT GAIN (PERCENT): chickens, after five days"}, "E. necatrix": {"system": "E. necatrix", "assay": "in vivo anticoccidial activity in chickens, E. necatrix", "settings": "diet of chickens, 25 to 150 ppm"}, "Eimeria tenella": {"system": "Eimeria tenella", "assay": "in vivo anticoccidial activity in chickens, Eimeria tenella", "settings": "for AVERAGE DEGREE OF INFECTION / WEIGHT GAIN (PERCENT): chickens, after six days"}, "E. maxima": {"system": "E. maxima", "assay": "in vivo anticoccidial activity in chickens, E. maxima", "settings": "diet of chickens, 25 to 150 ppm"}, "rumen fluid": {"system": "rumen fluid", "assay": "in vitro rumen technique, propionic acid production", "settings": "39° C., about 16 hours; for increase in the production of propionic acid over control: 10 micrograms per milliliter, experiment with UK-58,852"}, "E. brunetti": {"system": "E. brunetti", "assay": "in vivo anticoccidial activity in chickens, E. brunetti", "settings": "diet of chickens, 25 to 150 ppm"}, "[4]": {"settings": "diet of chickens, 25 to 150 ppm"}}}
{"smiles": "COC1CCC(OC2CC(C3OC(C)(O)C(C)CC3C)OC2C2(C)CCC(C3(C)CCC4(CC(O)C(C)C(C(C)C5OC(O)(CC(=O)[O-])C(C)C(OC6CCC(OC)C(C)O6)C5OC)O4)O3)O2)OC1C.[Na+]", "note": "(centres unmarked) [UK-58,852 (sodium salt)]", "values": [{"measurement": "MIC", "setting": "Streptococcus pyogenes", "result": 0.05, "unit": "µg/mL"}, {"measurement": "MIC", "setting": "[1]", "result": "> 25", "unit": "µg/mL"}, {"measurement": "MIC", "setting": "Pseudomonas aeruginosa", "result": "> 50", "unit": "µg/mL"}, {"measurement": "MIC", "setting": "Clostridium perfringens", "result": 0.79, "unit": "µg/mL"}, {"measurement": "MIC", "setting": "[2]", "result": "> 25", "unit": "µg/mL"}, {"measurement": "MIC", "setting": "Streptococcus faecalis", "result": "> 50", "unit": "µg/mL"}, {"measurement": "MIC", "setting": "Klebsiella pneumoniae", "result": "> 50", "unit": "µg/mL"}, {"measurement": "MIC", "setting": "Treponema hyodysenteriae", "result": 0.39, "unit": "µg/mL"}, {"measurement": "MIC", "setting": "Staphylococcus aureus; strain 01A005", "result": 3.12, "unit": "µg/mL"}, {"measurement": "MIC", "setting": "Staphylococcus aureus; strain 01A052", "result": 3.12, "unit": "µg/mL"}, {"measurement": "MIC", "setting": "Staphylococcus aureus; strain 01A110", "result": 3.12, "unit": "µg/mL"}, {"measurement": "MIC", "setting": "Staphylococcus aureus; strain 01A400", "result": 6.25, "unit": "µg/mL"}, {"measurement": "MIC", "setting": "Pasteurella multocida", "result": "> 200", "unit": "µg/mL"}, {"measurement": "MIC", "setting": "Escherischia coli", "result": "> 50", "unit": "µg/mL"}, {"measurement": "MIC", "setting": "Serratia marcescens", "result": "> 50", "unit": "µg/mL"}, {"measurement": "MIC", "setting": "Actinomyces pyogenes", "result": 0.08, "unit": "µg/mL"}, {"measurement": "MIC", "setting": "Bacteroides fragilis", "result": 0.10, "unit": "µg/mL"}, {"measurement": "MIC", "setting": "[3]", "result": "> 50", "unit": "µg/mL"}]}
{"smiles": "COC1CCC(OC2CC(C3OC(C)(O)C(C)CC3C)OC2C2(C)CCC(C3(C)CCC4(CC(O)C(C)C(C(C)C5OC(O)(CC(=O)O)C(C)C(OC6CCC(OC)C(C)O6)C5OC)O4)O3)O2)OC1C", "note": "(centres unmarked) [UK-58,852]", "values": [{"measurement": "AVERAGE DEGREE OF INFECTION", "setting": "Eimeria acervulina; 25 ppm in feed", "result": 0.0}, {"measurement": "WEIGHT GAIN (PERCENT)", "setting": "Eimeria acervulina; 25 ppm in feed", "result": 98, "unit": "%"}, {"measurement": "AVERAGE DEGREE OF INFECTION", "setting": "Eimeria acervulina; 50 ppm in feed", "result": 0.0}, {"measurement": "WEIGHT GAIN (PERCENT)", "setting": "Eimeria acervulina; 50 ppm in feed", "result": 62, "unit": "%"}, {"measurement": "AVERAGE DEGREE OF INFECTION", "setting": "Eimeria acervulina; 75 ppm in feed", "result": 0.0}, {"measurement": "WEIGHT GAIN (PERCENT)", "setting": "Eimeria acervulina; 75 ppm in feed", "result": 0, "unit": "%"}, {"measurement": "AVERAGE DEGREE OF INFECTION", "setting": "Eimeria acervulina; 100 ppm in feed", "result": 0.0}, {"measurement": "WEIGHT GAIN (PERCENT)", "setting": "Eimeria acervulina; 100 ppm in feed", "result": 23, "unit": "%"}, {"measurement": "AVERAGE DEGREE OF INFECTION", "setting": "Eimeria acervulina; 125 ppm in feed", "result": 0.0}, {"measurement": "WEIGHT GAIN (PERCENT)", "setting": "Eimeria acervulina; 125 ppm in feed", "result": 0, "unit": "%"}, {"measurement": "AVERAGE DEGREE OF INFECTION", "setting": "Eimeria acervulina; 150 ppm in feed", "result": 0.0}, {"measurement": "WEIGHT GAIN (PERCENT)", "setting": "Eimeria acervulina; 150 ppm in feed", "result": 0, "unit": "%"}, {"measurement": "controlling infections due to E. acervulina", "setting": "Eimeria acervulina; [4]", "result": "effective"}, {"measurement": "controlling infections due to E. necatrix", "setting": "E. necatrix", "result": "effective"}, {"measurement": "AVERAGE DEGREE OF INFECTION", "setting": "Eimeria tenella; 25 ppm in feed", "result": 0.0}, {"measurement": "WEIGHT GAIN (PERCENT)", "setting": "Eimeria tenella; 25 ppm in feed", "result": 93, "unit": "%"}, {"measurement": "AVERAGE DEGREE OF INFECTION", "setting": "Eimeria tenella; 50 ppm in feed", "result": 0.0}, {"measurement": "WEIGHT GAIN (PERCENT)", "setting": "Eimeria tenella; 50 ppm in feed", "result": 45, "unit": "%"}, {"measurement": "AVERAGE DEGREE OF INFECTION", "setting": "Eimeria tenella; 75 ppm in feed", "result": 0.0}, {"measurement": "WEIGHT GAIN (PERCENT)", "setting": "Eimeria tenella; 75 ppm in feed", "result": 28, "unit": "%"}, {"measurement": "AVERAGE DEGREE OF INFECTION", "setting": "Eimeria tenella; 100 ppm in feed", "result": 0.0}, {"measurement": "WEIGHT GAIN (PERCENT)", "setting": "Eimeria tenella; 100 ppm in feed", "result": 8, "unit": "%"}, {"measurement": "AVERAGE DEGREE OF INFECTION", "setting": "Eimeria tenella; 125 ppm in feed", "result": 0.0}, {"measurement": "WEIGHT GAIN (PERCENT)", "setting": "Eimeria tenella; 125 ppm in feed", "result": 4, "unit": "%"}, {"measurement": "AVERAGE DEGREE OF INFECTION", "setting": "Eimeria tenella; 150 ppm in feed", "result": 0.0}, {"measurement": "WEIGHT GAIN (PERCENT)", "setting": "Eimeria tenella; 150 ppm in feed", "result": 0, "unit": "%"}, {"measurement": "controlling infections due to Eimeria tenella", "setting": "Eimeria tenella; [4]", "result": "effective"}, {"measurement": "controlling infections due to E. maxima", "setting": "E. maxima", "result": "effective"}, {"measurement": "increase in the production of propionic acid over control", "setting": "rumen fluid", "result": "about 93%"}, {"measurement": "controlling infections due to E. brunetti", "setting": "E. brunetti", "result": "effective"}]}
{"smiles": "CC[C@@H](C(=O)[C@@H](C)[C@@H](O)[C@H](C)[C@@H]1O[C@@H]([C@@H](CC)C(=O)O)CC[C@@H]1C)[C@H]1O[C@]2(C=C[C@@H](O)[C@]3(CC[C@@](C)([C@H]4CC[C@](O)(CC)[C@H](C)O4)O3)O2)[C@H](C)C[C@@H]1C", "note": "[salinomycin, reference compound]", "values": [{"measurement": "increase in propionic acid production", "setting": "rumen fluid; 10 mcg/ml., separate experiment with CP-70,228", "result": "about 40%"}, {"measurement": "increase in the production of propionic acid over control", "setting": "rumen fluid", "result": "~88", "unit": "%"}]}
